From patent US9901609B2, “Medicinal plant extract” (UNIVERSITY OF ANTWERP, priority 2013, dated 2018)

Test: Body weight monitoring during the in vivo experiment
Parameters: species or system dogs
Settings: entire experiment (180 days)
Description: After each surgical procedure each dog received marbofloxacin 2% (1 mg/kg body weight) during 4 days. The body weight of all dogs was monitored during the entire experiment. Data are expressed as mean±SEM. Data were analyzed using one way analysis of variance (ANOVA), followed by the Bonferroni test or Kruskal-Wallis analysis and Dunnett T3. P≦0.05 was considered significant.

**Q.** Which “body weight of the dogs over time” value does the source give for C[C@H](CCC(=O)O)[C@H]1CC[C@H]2[C@@H]3[C@@H](O)C[C@@H]4C[C@H](O)CC[C@]4(C)[C@H]3CC[C@]12C [UDCA, ursodeoxycholic acid] here?
**A.** gained or lost no body weight over time
